According to PMC8215932, “Novel neuroprotective peptides in the venom of the solitary scoliid wasp Scolia decorata ventralis” (The Journal of Venomous Animals and Toxins Including …, 2021):
Where no end group is shown, it is not given here.

Key:
[1] = system: human neuroblast-like cell line SH-SY5Y; conditions: cited from earlier work
Excerpt: (§1) BPP-11e (<[…]) and BPP-AP (<[…]), for example, ...

[2] = system: nicotinic acetylcholine receptor (nAChR); conditions: prey central nervous system; cited from earlier work
Excerpt: The first study of solitary wasp venoms was reported in 1987. Two kinins, threonine^6-bradykinin (Thr^6-BK) and megascoliakinin, were isolated and characterized from the venoms of the European scoliid wasps Colpa interrupta and Megascolia flavifrons, respectively. […] Thr^6-BK may be a common component of solitary scoliid wasp venoms, since we identified this peptide as a major component in three scoliid wasp venoms found in Japan [[1 ...

PC12 cells [3] = system: PC12 cells
Procedure: (§2) Neuronal cell line (PC12) was used to evaluate the neuroprotective effects of α-scoliidine and β-scoliidine against oxidative stress in vitro. PC12 cell is derived from a transplantable rat pheochromocytoma and was purchased from American Type Culture Collection (USA) (ATCC® CRL-1721™). Cells were routinely cultured in DMEM medium (Sigma-Aldrich) supplemented with 10% fetal bovine serum (Gibco, Waltham, USA), 1% (v/v) of 10000 U/mL penicillin, 10 mg/mL streptomycin and 25 μg/mL amphotericin B solution (Sigma-Aldrich) at 37 °C in an atmosphere of 5% CO2 and 95% air (Water Jacketed CO2 Incubator, Thermo Scientific). At 80% confluence, cells were passaged using trypsin-EDTA solution [0.05% (m/v) trypsin and 0.02% (m/v) EDTA]. Culture medium was replaced every 2-3 days.
PC12 cells were seeded at 2 x 10^4 cells/well in a 96-well plate (Nest Biotechnology, Rahway, USA) for 24 h, and then two neuroprotective assays were evaluated: 1) Cells were pre-treated with α-scoliidine or β-scoliidine (1 µM) at 37°C for 22 h and, after the mediums were replaced containing the peptide and H2O2 (0.6 mM) and incubated for 2 h more; 2) Cells were pre-treated with α-scoliidine or β-scoliidine (1 µM) for 4 h at 37°C and, after the mediums were replaced containing peptide and H2O2 (0.6 mM) and incubated for 20 h more. The control, α-scoliidine and β-scoliidine groups (without H2O2) were incubated under the same conditions. Next, all experimental groups were analyzed by the crystal violet assay.
(§3) All data are presented as mean ± SD of three independent experiments (n = 3) in triplicate. Data were analyzed using one-way analysis of variance (ANOVA) for between-groups comparisons followed by a Tukey’s post-hoc test for multiple comparisons. Values of p < 0.05 were considered to be statistically significant. The analyses were performed using GraphPad Prism 6.0 software (GraphPad Software, Inc., La Jolla, CA).

PC12 cells [4] = format: cell-based, rat
Procedure: Culture medium was replaced every 2-3 days.
The effects of α-scoliidine or β-scoliidine on the mitochondrial metabolism of PC12 cells were estimated using 3-(4,5-dimethylthiazol-2-yl)-2,5-diphenyltetrazolium bromide (MTT) reduction assay, as previously described. […] In addition, to the experimental groups mentioned above, two more groups were included in which cells were treated with L-N^Ω-Nitroarginine methyl ester (L-Name; 1 mM) and Bradykinin (Bk; 0.3 µM) in the presence or absence of H2O2. After treatments, cells were treated with 0.5 mg/mL MTT in the same medium culture for 3 h at 37°C. The resulting formazan produced by both cell treatments were dissolved by addition of DMSO. The amount of MTT formazan dissolved in DMSO was determined by measuring absorbance with a microplate reader (Spectramax M3 multi-mode, Molecular Devices, CA, EUA) at 540 nm. Data were expressed as the mean ± SD of mitochondrial metabolism percentage in relation to the control.

ACE = assay: Cleavage by ACE (stability test, HPLC); format: in vitro ADME, rabbit; conditions: peptide 30 µM, 37°C, four hours, RP-HPLC, UV 214 nm; for metabolised at 4 h, 30 µM: rabbit, ACE
Excerpt: All chemicals used in the present study were of analytical reagent grade (purity higher than 95%) and purchased from Calbiochem-Novabiochem Corporation (USA), Gibco BRL (New York, USA), Fluka Chemical Corp. (Buchs, Switzerland) or Sigma-Aldrich Corporation (MO, USA). The ACE I from rabbit lung (EC 3.4.15.1) from Sigma-Aldrich. For the reverse phase chromatography, acetonitrile and TFA were acquired from J.T. Baker. The FRET substrate Abz-FRK(Dnp)P-OH (used by ACE-I assays) were provided by Prof. Adriana Carmona, from the Department of Biophysics of UNIFESP-EPM, São Paulo, Brazil.
Both peptides (30 µM) were incubated separately with ACE ([…]) at 37°C for four hours. Samples containing only the synthetic peptides were used as negative control. After incubation, samples were analyzed by reverse phase chromatography on HPLC (Prominence, Shimadzu), using a Shim-pack VP-ODS C-18 column (4.6× 150 mm). Solvents used were 0.1% (v/v) TFA in water (solvent A), and acetonitrile plus solvent A (9:1) as solvent B. Separations were performed at a flow rate of 1 mL/min and a 10-60% gradient of solvent B over 20 min. In all cases, elution was followed by the measurement of ultraviolet absorption (214 nm).

human neprilysin (NEP) = assay: Cleavage by NEP; format: in vitro ADME; conditions: isolated human neprilysin (NEP)
Excerpt: Table 8 Hydrolyses of α-scoliidine and β-scoliidine by human neprilysin (NEP) and angiotensin-converting enzyme (ACE). | column: Cleavage (%)

PC12 cells [5] = system: PC12 cells; remark: listed apart in the source
Procedure: as §2
PC12 cells were seeded into 96-well plates (Nest Biotechnology, Rahway, USA), at 2.0 × 10^4 cells per well, and were treated with different concentrations (0.1 to 10 µM) of α-scoliidine and β-scoliidine in a final volume of 0.15 mL. The plate was incubated at 37°C for 3, 6, 12, 24, and 48 h. For each concentration and time course studied, there were control and DMSO groups, which represent untreated cells (only one equal volumes of the culture medium) and treated with DMSO 2.5% (v/v) diluted in the medium culture, respectively. The cytotoxic effects of both compounds were determined using crystal violet assay, according to Feoktistova et al.. Briefly, the medium was aspirated, and the cells were washed twice in a gentle stream of tap water. Then, 50 μL of a 0.5 % (v/v) crystal violet staining solution was added to each well, and incubated for 20 min at room temperature on a bench rocker with a frequency of 20 oscillations per min. The plate was washed four times and air-dried for at least 2 h at room temperature. Subsequently, methanol (200 μL) was added to each well, and the plate was incubated with its lid on for 20 min at room temperature on a bench rocker with a frequency of 20 oscillations per min. After, the absorbance of the sample was measured at 570 nm using a SpectraMax reader (Molecular Devices, CA, USA). The cytotoxicity was expressed as percentage (%) of cell integrity relative to control cells (100%).
as §3

human neural stem cells = conditions: cited from earlier work
Excerpt: as §1

PC12 cells [6] = conditions: cited from earlier work
cells = conditions: cited from earlier work
Excerpt: The phenomenon of synergistic toxicity of H2O2 effects when two agents are used together, and efficiently potentiate cell damage, has been reported in the literature. Of the several examples of H2O2 toxicity potentiation by oth ...

[7] = 0.1 to 10 µM, n = 3 in triplicate

For <EARPPHPPIPPAP [BPP-AP], the “Neuroprotection against H2O2-induced oxidative stress” value [1] is listed as “not good neuroprotective peptides against the H2O2-induced oxidative stress”.

In the case of RPPGFTPFRKA [megascoliakinin], the “Block of nAChR synaptic transmission” value [2] is given as “irreversibly block the synaptic transmission of the nicotinic acetylcholine receptor (nAChR) in the prey central nervous system”.

For OO [H2O2, hydrogen peroxide], the “H2O2 concentration above which cytotoxic” value (PC12 cells [3]) was “greater than 0.5 mM”, the “H2O2 cytotoxicity dose response, chronic” value (PC12 cells [3]) was “also showed a dose-response effect” and the “Reduction of cell viability by H2O2” value (PC12 cells [3]) was ~ 60%. For the same compound, the Metabolic viability (PC12 cells [4]) was 32.23 ± 0.96%.

With DYVTVKGFSPLR [α-scoliidine] the “Cleavage by ACE” value (ACE) was “not cleaved by the metallopeptidase”, the metabolised at 4 h, 30 µM (ACE) was under 0.01% and the metabolised (human neprilysin (NEP)) was under 0.01%. The “Cytotoxicity, cell integrity vs control or DMSO” value (PC12 cells [5]; 0.1 to 10 µM, 3, 6, 12, 24, and 48 h, mean ± SD of three independent experiments in triplicate) was “did not show any significant cytotoxicity (p > 0.05) in all dose concentrations, and at the times tested” and the “Cell integrity / neurotoxicity at 6 h” value (PC12 cells [5]; [7]) was “showed a tendency for neurotoxicity at 6 h of treatment”.

In the case of COC(=O)[C@@H](N)CCCNC(N)=N[N+](=O)[O-] [L-Name, L-N^Ω-Nitroarginine methyl ester], the “Metabolic viability under H2O2” value (PC12 cells [4]; pre-treatment 4 h, then + H2O2 0.6 mM 20 h, peptides 1 µM, L-Name 1 mM, Bk 0.30 μM, MTT) is reported as “prevented the reduction of metabolic viability”.

In the case of <EARPPHPPIPP [BPP-11e], the “Neuroprotection against H2O2-induced oxidative stress” value [1] is listed as “not good neuroprotective peptides against the H2O2-induced oxidative stress”.

For C[S+](C)[O-] [DMSO, dimethyl sulfoxide], the “Cell integrity after 24 and 48 h” value (PC12 cells [5]; 24 and 48 h, compared to the control group, peptides 0.1 to 10 µM, DMSO 2.5% (v/v), n = 3 in triplicate) was “decreased the cell integrity after 24 and 48 h compared to the control group”.

In the case of “Aβ 42: amyloid-β peptide (Aβ) isoform, Aβ 42”, the “Effect on cell proliferation” value (human neural stem cells) is given as “promotes cell proliferation of human neural stem cells in a concentration-dependent manner”.

In the case of Cc1cccc([C@H](C)c2cnc[nH]2)c1C [Dexmedetomidine], the “Proliferation in a stress condition” value (PC12 cells [6]) is listed as “dose-dependent restored impaired proliferation of PC12 cells in a stress condition”, the “Protection from ROS-induced cytotoxicity” value (PC12 cells [6]) is listed as “protected PC12 cells from ROS-induced cytotoxicity” and the “p21 and cyclin D1 expression” value (PC12 cells [6]) is listed as “decreased expression of tumor suppressor protein p21 and increased expression of cell cycle-related cyclin D1”.

In the case of O=C1O[C@H]([C@@H](O)CO)C(O)=C1O [ascorbic acid], the “Effect on intracellular oxidative potential of H2O2” value (cells) is listed as “enhancement of the intracellular oxidative potential of H2O2”.

For DYVTVKGFSPLRKA [β-scoliidine], the “Cleavage by ACE” value (ACE) was “not cleaved by the metallopeptidase”, the metabolised at 4 h, 30 µM (ACE) was under 0.01% and the metabolised (human neprilysin (NEP)) was under 0.01%. For the same compound, the “Cell integrity / neurotoxicity at 6 h” value (PC12 cells [5]; [7]) was “decreased cell integrity after 6 h of treatment in all concentration tested”.

For “RPPGFTPFR [Thr^6-BK, threonine^6-bradykinin]”, the “Block of nAChR synaptic transmission” value [2] is given as “irreversibly block the synaptic transmission of the nicotinic acetylcholine receptor (nAChR) in the prey central nervous system”.
